In patent US9822138B2, “Antiviral beta-amino acid ester phosphodiamide compounds” (Merck Sharp & Dohme Corp., priority 2015, dated 2017):
Like-named read-outs stand apart in the source and are kept apart here.

Legend:
[1] = tested on: HIV-1 (H9/IIIB strain); test: microbe, parasite or virus in culture; type: cell-based; details: MT4-GFP cells infected with HIV-1 H9/IIIB, inhibition of reproductive ratio R0
Description: Assessing Antiviral Potency in a Multiple Round HIV-1 Infection Assay (Viking Assay)
The antiviral activity of the tenofovir prodrugs of the Examples herein was assessed in an assay that measures the rate of replication of HIV in cell culture, termed the Viking assay (Viral KINetics in Green cells) and performed as follows. HIV-1 replication was monitored using MT4-gag-GFP clone D3 (hereafter designated MT4-GFP), which are MT-4 cells modified to harbor a GFP reporter gene, the expression of which is dependent on the HIV-1 expressed proteins tat and rev. Productive infection of an MT4-GFP cell with HIV-1 results in GFP expression approximately 24 h post-infection. MT4-GFP cells were maintained at 37° C./5% CO2/90% relative humidity in RPMI 1640 supplemented with 10% fetal bovine serum, 100 U/ml penicillin/streptomycin, and 400 μg/ml G418 to maintain the reporter gene. For infections, MT4-GFP cells were placed in the same medium lacking G418 and infected overnight with HIV-1 (H9/IIIB strain) virus at an approximate multiplicity of infection of 0.01 in the same incubation conditions. Cells were then washed and re-suspended in either RPMI 1640 supplemented with 10% or 50% normal human serum (NHS) at 1.6×10^5 cells/mL (10% NHS or 50% NHS, respectively). Compound plates were prepared by dispensing compounds dissolved in DMSO into wells of 384 well poly-D-lysine-coated plates (0.2 μl/well) using an ECHO acoustic dispenser. Each compound was tested in a 10-point serial 3-fold dilution (typical final concentrations: 8.4 μM-0.42 nM). Controls included no inhibitor (DMSO only) and a combination of three antiviral agents (efavirenz, indinavir, an in-house integrase strand transfer inhibitor at final concentrations of 4 μM each). Cells were added ([…]) to compound plates and the infected cells were maintained at 37° C./5% CO2/90% relative humidity.
Infected cells were quantified at two time points, ˜48 h and ˜72 h post-infection, by counting the number of green cells in each well using an Acumen eX3 scanner. […] Inhibition of R0 is calculated for each well, and IC50s determined by non-linear 4-parameter curve fitting.

[2] = Prodrug stability assay in bio-relevant media (FaSSIF with pancreatin; GI tract stability); type: in vitro ADME; details: parent prodrug area at 5 h divided by area at 0 h; 37° C.; 0.5 mg/mL pancreatin in FaSSIF
Description: Prodrug Stability Assay in Bio-Relevant Media
The following assay was employed to evaluate the stability of the prodrugs in simulated gastrointestinal tract conditions. Preparation of fasted state simulated intestinal fluid (FaSSIF) using Phares SIF Powder was carried out according to protocols from Phare Drug Delivery AG (Baselland, Switzerland). For sample preparation, 10 μL stock solutions (10 mM) of prodrug substance in DMSO was added to 990 μL of 0.5 mg/mL Pancreatin solution (Fisher CAS#8049-47-6) in FaSSIF. Two samples were prepared for each compound at initial. If the sample was clear solution at the beginning, ran one sample directly as initial by HPLC; if the sample was not clear at starting, diluted the sample by 100% ACN. Put the other sample under 37° C. and observed the sample at 5 h time-point. At 5 h time point, if the sample was clear solution then performed HPLC analysis directly; if it was not clear solution, diluted the sample by 100% ACN and assayed by HPLC. All the samples were vortexed for 3 min and observed before injection. For the diluted samples, the area will be multiplied by a factor when data analysis. The analysis was carried out with an Agilent 1100 series HPLC with autosampler. The column was usually a Poroshell 120 EC-C18, 4.6×50 mm, 2.7 μm. The flow rate was 1.8 mL/min, and the injection volume was 5 or 10 μL. UV detection was in the range 210-400 nm. The mobile phase consisted of solvent A (water plus 10 mM tetrabutylammonium bromide) and solvent B (acetonitrile) with a gradient of 90% solvent A at 0 min changing to 95% solvent B over 6 min, maintained for 1.5 min, then reverting to 90% solvent A over 1.6 min. The area of the parent in prodrug at 5 h time point was divided by the area of the parent in prodrug at 0 h time point, to generate the % claimed parent ratio, which are summarized in Table 5 for GI Tract stability.

[3] = Human immunodeficiency virus 1, 10% normal human serum, read-out: Viking, IC50 (10% NHS)
[4] = Human immunodeficiency virus 1, 50% normal human serum, read-out: Viking, IC50 (50% NHS)
[5] = 10% normal human serum, read-out: Viking, IC50 (10% NHS)
[6] = 50% normal human serum, read-out: Viking, IC50 (50% NHS)
[7] = Human immunodeficiency virus 1, IIIB, 10% normal human serum, read-out: Viking, IC50 (10% NHS)
[8] = Human immunodeficiency virus 1, IIIB, 50% normal human serum, read-out: Viking, IC50 (50% NHS)

Compound	IC50 [1, 3]	IC50 [1, 4]	GI Tract stability [2]	IC50 [1, 5]	IC50 [1, 6]	IC50 [1, 7]	IC50 [1, 8]
CC(C)OC(=O)C[C@H](N[P@@](=O)(CO[C@H](C)Cn1cnc2c(N)ncnc21)NC(C)(C)C(=O)OC(C)C)C(C)C (single isomer, unassigned) [Example 25A]	4.7 nM	12 nM	99.0%				
CC(C)OC(=O)C[C@H](C)NP(=O)(CO[C@H](C)Cn1cnc2c(N)ncnc21)N[C@@H](C)C(=O)OC(C)C (single isomer, unassigned) [Example 8A]			89.5%	26.5 nM	38.2 nM		
CC(C)OC(=O)[C@H](C)CNP(=O)(CO[C@H](C)Cn1cnc2c(N)ncnc21)N[C@@H](C)C(=O)OC(C)C (single isomer, unassigned) [Example 10A]			54.8%	10.6 nM	97.2 nM		
CC(C)OC(=O)CCNP(=O)(CO[C@H](C)Cn1cnc2c(N)ncnc21)N[C@H](C)C(=O)OC1CCC1 (single isomer, unassigned) [Example 23B]			101%	121 nM	488 nM		
CC(C)COC(=O)[C@H](C)NP(=O)(CO[C@H](C)Cn1cnc2c(N)ncnc21)NC[C@H](C)C(=O)OC(C)C (single isomer, unassigned) [Example 14B]			60.6%	15.7 nM	51.6 nM		
CC(C)OC(=O)C[C@H](N[P@](=O)(CO[C@H](C)Cn1cnc2c(N)ncnc21)NC(C)(C)C(=O)OC(C)C)C(C)C [Example 25B]	590 nM	> 2000 nM	100%				
CC(C)OC(=O)[C@@H](C)CNP(=O)(CO[C@H](C)Cn1cnc2c(N)ncnc21)N[C@H](C)C(=O)OC1CCCC1 (single isomer, unassigned) [Example 22B]			99.2%	83.8 nM	291 nM		
CC(C)OC(=O)[C@@H](C)CNP(=O)(CO[C@H](C)Cn1cnc2c(N)ncnc21)N[C@@H](C)C(=O)OC1CCCC1 (single isomer, unassigned) [Example 11B]			76.4%	20.9 nM	68.4 nM		
CCCCCOC(=O)[C@H](C)NP(=O)(CO[C@H](C)Cn1cnc2c(N)ncnc21)NC[C@H](C)C(=O)OC(C)C (single isomer, unassigned) [Example 16A]			12.7%			6.1 nM	18.6 nM
CCCCCOC(=O)C(C)(C)NP(=O)(CO[C@H](C)Cn1cnc2c(N)ncnc21)N[C@@H](C)CC(=O)OC(C)C (single isomer, unassigned) [Example 26B]			96.9%	1.5 nM	6.8 nM		
CCCCCCOC(=O)C(C)(C)NP(=O)(CO[C@H](C)Cn1cnc2c(N)ncnc21)N[C@@H](CC(=O)OC(C)C)C(C)C (single isomer, unassigned) [Example 28B]			83%	2.1 nM	5.7 nM		
CC(C)OC(=O)CCNP(=O)(CO[C@H](C)Cn1cnc2c(N)ncnc21)N[C@@H](C)C(=O)OC(C)C (single isomer, unassigned) [Example 7A]	26.4 nM	44.1 nM	98.7%				
CC(C)COC(=O)[C@H](C)NP(=O)(CO[C@H](C)Cn1cnc2c(N)ncnc21)NC[C@H](C)C(=O)OC(C)C (single isomer, unassigned) [Example 14A]			38.3%			16.6 nM	70.2 nM
CCCCCOC(=O)[C@H](C)NP(=O)(CO[C@H](C)Cn1cnc2c(N)ncnc21)NC[C@H](C)C(=O)OC(C)C (single isomer, unassigned) [Example 16B]			56.2%	7.3 nM	28.3 nM		
CC(C)OC(=O)C[C@H](C)NP(=O)(CO[C@H](C)Cn1cnc2c(N)ncnc21)N[C@H](C)C(=O)OC1CCC1 (single isomer, unassigned) [Example 19A]			100%	51.2 nM	195 nM		
CC(C)OC(=O)[C@@H](C)CNP(=O)(CO[C@H](C)Cn1cnc2c(N)ncnc21)N[C@@H](C)C(=O)OC1CCCCC1 (single isomer, unassigned) [Example 13A]			38.7%	8.7 nM	56.4 nM		
CCCCCCCOC(=O)[C@H](C)NP(=O)(CO[C@H](C)Cn1cnc2c(N)ncnc21)NC[C@H](C)C(=O)OC(C)C (single isomer, unassigned) [Example 17B]			0%	2.2 nM	12 nM		
CC(C)OC(=O)[C@@H](C)CNP(=O)(CO[C@H](C)Cn1cnc2c(N)ncnc21)N[C@H](C)C(=O)OC1CCC1 (single isomer, unassigned) [Example 20B]			99.3%	112 nM	432 nM		
CCCCCOC(=O)C(C)(C)N[P@](=O)(CO[C@H](C)Cn1cnc2c(N)ncnc21)N[C@@H](CC(=O)OC(C)C)C(C)C (single isomer, unassigned) [Example 24A]	0.8 nM	4.4 nM	76%				
CC(C)OC(=O)[C@@H](C)CNP(=O)(CO[C@H](C)Cn1cnc2c(N)ncnc21)N[C@@H](C)C(=O)OC1CCC1 (single isomer, unassigned) [Example 12B]			37.7%	20.9 nM	63.2 nM		
CC(C)OC(=O)C[C@@H](C)NP(=O)(CO[C@H](C)Cn1cnc2c(N)ncnc21)N[C@@H](C)C(=O)OC(C)C (single isomer, unassigned) [Example 9A]			99.6%	25.3 nM	66.7 nM		
CC(C)OC(=O)[C@H](C)NP(=O)(CO[C@H](C)Cn1cnc2c(N)ncnc21)NC[C@H](C)C(=O)OC(C)C (single isomer, unassigned) [Example 6A]	20 nM	59.3 nM	99.5%				
CCCCCCCOC(=O)[C@H](C)NP(=O)(CO[C@H](C)Cn1cnc2c(N)ncnc21)NC[C@H](C)C(=O)OC(C)C (single isomer, unassigned) [Example 17A]			30.5%	6.5 nM	43 nM		
CCCCOC(=O)[C@H](C)NP(=O)(CO[C@H](C)Cn1cnc2c(N)ncnc21)NC[C@H](C)C(=O)OC(C)C (single isomer, unassigned) [Example 15B]			65.8%	11.7 nM	79.4 nM		
CC(C)OC(=O)C[C@@H](C)NP(=O)(CO[C@H](C)Cn1cnc2c(N)ncnc21)N[C@H](C)C(=O)OC1CCC1 (single isomer, unassigned) [Example 18A]	65 nM	134 nM	99.2%				
